Laboratory results reported in US9914760B2, “Methods of identifying, isolating and using odorant and aroma receptors” (Firmenich SA, priority 2013, dated 2018).

Experiments:
OR11G2 = molecular target: T1, OR11G2 (Homo sapiens, UniProt Q8NGC1); experiment: cell-based calcium-flux assay, HEK293T with Gα15; details: increasing concentrations; FIG. 6C
T1 construct: expressed in transfected cells
T1 sequence (Q8NGC1 35-345): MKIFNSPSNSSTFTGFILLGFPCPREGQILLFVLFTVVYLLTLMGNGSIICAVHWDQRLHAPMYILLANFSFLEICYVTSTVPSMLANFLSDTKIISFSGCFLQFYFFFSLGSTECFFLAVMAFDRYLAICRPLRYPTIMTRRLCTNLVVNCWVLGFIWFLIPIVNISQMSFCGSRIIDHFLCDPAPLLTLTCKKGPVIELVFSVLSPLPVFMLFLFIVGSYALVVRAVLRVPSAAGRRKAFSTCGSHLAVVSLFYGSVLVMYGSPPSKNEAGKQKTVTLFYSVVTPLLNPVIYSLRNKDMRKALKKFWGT
From the text: (§1) The activity of candidate human indole and skatole malodors receptors OR52N2 (SEQ ID NO: 11 and SEQ ID NO: 12), OR11G2 (SEQ ID NO: 13 and SEQ ID NO: 14, OR5AC2 (SEQ ID NO: 75 and SEQ ID NO: 76), OR4C15 (SEQ ID NO: 79 and SEQ ID NO: 80), OR8S1 (SEQ ID NO: 83 and SEQ ID NO: 84), OR11H6 (SEQ ID NO: 15 and SEQ ID NO: 16) and OR11H4 (SEQ ID NO: 49 and SEQ ID NO: 50) and candidate mouse indole and skatole malodors receptors Olfr665 (SEQ ID NO: 9 and SEQ ID NO 10) and Olfr740 (SEQ ID NO: 1 and SEQ ID NO 2) were confirmed in cell-based calcium-flux assays (FIGS. 6A to 6J). Cells stably co-expressing Rho-tagged human OR52N2 (FIG. 6A, B) or OR11G2 (FIG. 6C) and Gα15 (SEQ ID NO: 25) were exposed to increasing concentrations of skatole or indole. FIG. 6B is a repeat experiment showing similar activity of OR52N2 with indole and skatole. Odorant-induced OR52N2 or OR11G2 activity was detected by measuring the maximum Calcium 5 dye (Molecular Devices) fluorescence change following odorant exposure. Activity is defined as the baseline corrected Relative Fluorescent Units (RFU) ratios normalized to the highest RFU in the experiment in FIG. 6A. […] A cell line lacking a receptor, for example hOR52N2, was used as a control for non-specific activity at high concentrations (‘Indole control’ and ‘Skatole control’). The human receptor OR52N2 (SEQ ID NO: 11 and SEQ ID NO: 12) was identified because of its sequence similarity to mouse Olfr665 (SEQ ID NO: 10), an indole/skatole receptor isolated from olfactory neurons responding to both indole and skatole. The human receptor OR11G2 (SEQ ID NO: 13 and SEQ ID NO: 14) was identified because of its sequence similarity to mouse Olfr740 (SEQ ID NO: 2), an indole/skatole receptor isolated from olfactory neurons responding to both indole and skatole. The receptors were modified with the Rho sequence and stably expressed in HEK 293T cells. Further examples show indole and skatole dose-response curves for human receptors OR5AC2, OR4C15, OR8S1, OR11H6, OR11H4 and mouse receptors Olfr665 and Olfr740 (FIG. 6D-J). The human receptor OR5AC2 (SEQ ID NO: 75 and SEQ ID NO: 76) was identified because of its sequence similarity to mouse Olfr207 (SEQ ID NO: 78), a receptor isolated from olfactory neurons responding to both indole and skatole. The human receptor OR4C15 (SEQ ID NO: 79 and SEQ ID NO: 80) was identified because of its sequence similarity to mouse Olfr211 (SEQ ID NO: 82), a receptor isolated from olfactory neurons responding to both indole and skatole. The human receptor OR8S1 (SEQ ID NO: 83 and SEQ ID NO: 84) was identified because of its sequence similarity to mouse Olfr257 (SEQ ID NO: 86), a receptor isolated from olfactory neurons responding to both indole and skatole. The human receptor OR11H6 (SEQ ID NO: 15 and SEQ ID NO: 16) was identified because of its sequence similarity to mouse Olfr745 (SEQ ID NO: 8), a receptor isolated from olfactory neurons responding to both indole and skatole. The human receptor OR11H4 (SEQ ID NO: 49 and SEQ ID NO: 50) was identified because of its sequence similarity to mouse Olfr746 (SEQ ID NO: 38), a receptor isolated from olfactory neurons responding to both indole and skatole. The mouse receptor Olfr665 (SEQ ID NO: 9 and SEQ ID NO: 10) was identified directly from NGS data from isolated olfactory neurons responding to both indole and skatole. The mouse receptor Olfr740 (SEQ ID NO: 1 and SEQ ID NO: 2) was identified directly from NGS data from isolated olfactory neurons responding to both indole and skatole. Co-expression of the human G alpha subunit Gα15 activates the Gq transduction pathway that leads to an internal Ca2+ increase upon binding to the appropriate ligand.

OR5AC2 = molecular target: T2, OR5AC2 (Homo sapiens, UniProt Q9NZP5); experiment: cell-based calcium-flux assay, HEK293T with Gα15; details: dose-response curves FIG. 6D-J
T2 construct: expressed in transfected cells
T2 sequence (Q9NZP5 1-309): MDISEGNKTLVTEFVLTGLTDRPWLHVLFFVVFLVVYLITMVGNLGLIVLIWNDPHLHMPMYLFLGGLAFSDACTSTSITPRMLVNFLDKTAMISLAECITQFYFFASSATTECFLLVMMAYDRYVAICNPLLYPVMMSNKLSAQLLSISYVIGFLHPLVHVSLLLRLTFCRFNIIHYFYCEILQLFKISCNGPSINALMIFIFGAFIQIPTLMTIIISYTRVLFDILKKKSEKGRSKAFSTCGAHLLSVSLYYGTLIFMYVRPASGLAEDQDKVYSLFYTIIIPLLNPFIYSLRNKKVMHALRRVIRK
From the text: as §1

Compound | receptor activity (Calcium 5 dye fluorescence change) (OR11G2) | receptor response in vitro (OR5AC2)
Cc1c[nH]c2ccccc12 [skatole, 3-methyl indole] | dose-dependent increase of receptor activity | responded
c1ccc2[nH]ccc2c1 [indole] | dose-dependent increase of receptor activity | responded
